Assay results published in the NIST ThermoML archive (doi:10.1016/j.tca.2017.09.024).
± gives the expanded uncertainty stated by the source.

Settings: Crystal; DTA

SMILES	Normal melting temperature
c1ccccc1 [benzene]	5.6 ± 2 °C
Fc1ccccc1 [fluorobenzene]	-41.9 ± 2 °C
